These compounds were tested against T1, Casein kinase II subunit alpha (Homo sapiens, UniProt P68400) (assay: Inhibition of human CK2 alpha catalytic subunit expressed in Escherichia coli BL21 (DE3) assessed as [32P]gamma-ATP incorporation into RRRADDSDDDDD substrate after 15 mins by scintillation counting).
T1 sequence (P68400 whole entry): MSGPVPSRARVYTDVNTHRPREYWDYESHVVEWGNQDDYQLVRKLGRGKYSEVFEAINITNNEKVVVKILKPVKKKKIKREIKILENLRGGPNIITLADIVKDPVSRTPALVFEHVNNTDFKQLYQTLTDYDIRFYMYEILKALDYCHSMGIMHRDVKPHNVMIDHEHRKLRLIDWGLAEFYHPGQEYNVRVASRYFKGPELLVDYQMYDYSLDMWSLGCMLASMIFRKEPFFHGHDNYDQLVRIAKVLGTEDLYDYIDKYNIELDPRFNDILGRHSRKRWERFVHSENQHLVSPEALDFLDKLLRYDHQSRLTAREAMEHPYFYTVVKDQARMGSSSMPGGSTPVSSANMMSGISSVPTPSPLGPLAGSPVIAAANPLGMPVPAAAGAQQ

Ki [nM] | Compound
83 | CN(C)c1nc2c(Br)c(Br)c(Br)c(Br)c2n1CC(=O)O
13 | Cn1c(SCC(=O)O)nc2c(Br)c(Br)c(Br)c(Br)c21
137 | Cn1c(SCCC(=O)O)nc2c(Br)c(Br)c(Br)c(Br)c21
501 | Cn1c(SCCCC(=O)O)nc2c(Br)c(Br)c(Br)c(Br)c21
456 | CN(C)c1nc2c(Br)c(Br)c(Br)c(Br)c2n1CCCC(=O)O
154 | CN(C)c1nc2c(Br)c(Br)c(Br)c(Br)c2n1C
670 | O=C(O)Cn1cnc2c(Br)c(Br)c(Br)c(Br)c21

Further lines, the compound ahead of its results:

Compound | Ki [nM]
O=C(O)CCSc1nc2c(Br)c(Br)c(Br)c(Br)c2[nH]1 | 172
O=C(O)CCCSc1nc2c(Br)c(Br)c(Br)c(Br)c2[nH]1 | 210
O=C(O)CCCn1cnc2c(Br)c(Br)c(Br)c(Br)c21 | 368
O=C(O)CSc1nc2c(Br)c(Br)c(Br)c(Br)c2[nH]1 | 170
O=C(O)Cn1cnc2c(I)c(I)c(I)c(I)c21 | 261
Ic1c(I)c(I)c2[nH]cnc2c1I | 43
O=C(O)CSc1nc2c(I)c(I)c(I)c(I)c2[nH]1 | 80

These compounds were tested against T2, Casein kinase II subunit alpha' (Homo sapiens, UniProt P19784) (assay: Inhibition of human CK2 alpha' catalytic subunit expressed in Escherichia coli BL21 (DE3) assessed as [33P]gamma-ATP incorporation into P2B substrate after 15 mins by scintillation counting).
T2 sequence (P19784 whole entry): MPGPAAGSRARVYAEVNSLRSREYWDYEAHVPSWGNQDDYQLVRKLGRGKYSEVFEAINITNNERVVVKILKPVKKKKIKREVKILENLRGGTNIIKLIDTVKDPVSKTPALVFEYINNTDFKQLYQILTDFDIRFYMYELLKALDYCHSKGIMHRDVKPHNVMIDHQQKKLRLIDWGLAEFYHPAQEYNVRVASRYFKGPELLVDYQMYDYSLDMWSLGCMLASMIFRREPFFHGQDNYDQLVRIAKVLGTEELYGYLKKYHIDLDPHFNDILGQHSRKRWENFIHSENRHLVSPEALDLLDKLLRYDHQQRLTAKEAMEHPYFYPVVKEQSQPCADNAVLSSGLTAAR

Ki [nM] | Compound
66 | CN(C)c1nc2c(Br)c(Br)c(Br)c(Br)c2n1CC(=O)O
200 | Cn1c(SCC(=O)O)nc2c(Br)c(Br)c(Br)c(Br)c21
100 | Cn1c(SCCC(=O)O)nc2c(Br)c(Br)c(Br)c(Br)c21
83 | Cn1c(SCCCC(=O)O)nc2c(Br)c(Br)c(Br)c(Br)c21
139 | CN(C)c1nc2c(Br)c(Br)c(Br)c(Br)c2n1CCCC(=O)O
270 | Brc1c(Br)c(Br)c2[nH]cnc2c1Br
109 | CN(C)c1nc2c(Br)c(Br)c(Br)c(Br)c2n1C
609 | O=C(O)Cn1cnc2c(Br)c(Br)c(Br)c(Br)c21

Second part, the compound before the results:

Compound | Ki [nM]
O=C(O)CCSc1nc2c(Br)c(Br)c(Br)c(Br)c2[nH]1 | 35
O=C(O)CCCSc1nc2c(Br)c(Br)c(Br)c(Br)c2[nH]1 | 88
O=C(O)CCCn1cnc2c(Br)c(Br)c(Br)c(Br)c21 | 188
O=C(O)CSc1nc2c(Br)c(Br)c(Br)c(Br)c2[nH]1 | 37
O=C(O)Cn1cnc2c(I)c(I)c(I)c(I)c21 | 62
Ic1c(I)c(I)c2[nH]cnc2c1I | 71
O=C(O)CSc1nc2c(I)c(I)c(I)c(I)c2[nH]1 | 78

These compounds were tested against T1, Casein kinase II subunit alpha (assay: Inhibition of human CK2 alpha catalytic subunit expressed in Escherichia coli BL21 (DE3) assessed as [32P]gamma-ATP incorporation into P2B substrate after 15 mins by scintillation counting).

Ki [nM] | Compound
88 | CN(C)c1nc2c(Br)c(Br)c(Br)c(Br)c2n1CC(=O)O
143 | Cn1c(SCC(=O)O)nc2c(Br)c(Br)c(Br)c(Br)c21
112 | Cn1c(SCCC(=O)O)nc2c(Br)c(Br)c(Br)c(Br)c21
88 | Cn1c(SCCCC(=O)O)nc2c(Br)c(Br)c(Br)c(Br)c21
860 | CN(C)c1nc2c(Br)c(Br)c(Br)c(Br)c2n1CCCC(=O)O
212 | CN(C)c1nc2c(Br)c(Br)c(Br)c(Br)c2n1C
798 | O=C(O)Cn1cnc2c(Br)c(Br)c(Br)c(Br)c21

The remaining lines, values behind:

Compound | Ki [nM]
O=C(O)CCSc1nc2c(Br)c(Br)c(Br)c(Br)c2[nH]1 | 116
O=C(O)CCCSc1nc2c(Br)c(Br)c(Br)c(Br)c2[nH]1 | 77
O=C(O)CCCn1cnc2c(Br)c(Br)c(Br)c(Br)c21 | 472
O=C(O)CSc1nc2c(Br)c(Br)c(Br)c(Br)c2[nH]1 | 106
O=C(O)Cn1cnc2c(I)c(I)c(I)c(I)c21 | 378
Ic1c(I)c(I)c2[nH]cnc2c1I | 266
O=C(O)CSc1nc2c(I)c(I)c(I)c(I)c2[nH]1 | 110

What follows are compounds tested against T2, Casein kinase II subunit alpha' (assay: Inhibition of human CK2 alpha' catalytic subunit expressed in Escherichia coli […] (DE3) assessed as [33P]gamma-ATP incorporation into RRRADDSDDDDD substrate after 15 mins by scintillation counting).

Ki [nM] | Compound
21 | CN(C)c1nc2c(Br)c(Br)c(Br)c(Br)c2n1CC(=O)O
24 | Cn1c(SCC(=O)O)nc2c(Br)c(Br)c(Br)c(Br)c21
55 | Cn1c(SCCC(=O)O)nc2c(Br)c(Br)c(Br)c(Br)c21
768 | Cn1c(SCCCC(=O)O)nc2c(Br)c(Br)c(Br)c(Br)c21
93 | CN(C)c1nc2c(Br)c(Br)c(Br)c(Br)c2n1CCCC(=O)O
343 | Brc1c(Br)c(Br)c2[nH]cnc2c1Br
35 | CN(C)c1nc2c(Br)c(Br)c(Br)c(Br)c2n1C
342 | O=C(O)Cn1cnc2c(Br)c(Br)c(Br)c(Br)c21

The remaining lines, values behind:

Compound | Ki [nM]
O=C(O)CCSc1nc2c(Br)c(Br)c(Br)c(Br)c2[nH]1 | 31
O=C(O)CCCSc1nc2c(Br)c(Br)c(Br)c(Br)c2[nH]1 | 44
O=C(O)CCCn1cnc2c(Br)c(Br)c(Br)c(Br)c21 | 195
O=C(O)CSc1nc2c(Br)c(Br)c(Br)c(Br)c2[nH]1 | 49
O=C(O)Cn1cnc2c(I)c(I)c(I)c(I)c21 | 324
Ic1c(I)c(I)c2[nH]cnc2c1I | 21
O=C(O)CSc1nc2c(I)c(I)c(I)c(I)c2[nH]1 | 106

Source: ChEMBL document CHEMBL1926659, “CK2α and CK2α' subunits differ in their sensitivity to 4,5,6,7-tetrabromo- and 4,5,6,7-tetraiodo-1H-benzimidazole derivatives” (Eur J Med Chem, 2012)
